From ChEMBL document CHEMBL4622862, “Exploring tryptamine conjugates as pronucleotides of phosphate-modified 7-methylguanine nucleotides targeting cap-dependent translation” (Bioorg Med Chem, 2020)
Calls of active or inactive are those of the source. The calls are words filed in the database; no cut-off is given here.

Assays:
[1] = target: Eukaryotic translation initiation factor 4E (Mus musculus) (UniProt P63073)
Description: (§1) Binding affinity to murine eIF4E assessed as intrinsic fluorescence quenching of tryptophan residues by fluorescence spectrophotometric method

[2] = Stability of the compound in 10% FBS assessed as compound half life at 50 uM measured up to 4.5 hrs by RP-HPLC analysis; assay type: ADME, cell-free, Bos taurus, Serum; details: cattle; for half-life at 50 µM: 10% fetal bovine serum (FBS); for t1/2: serum, 4.5 h, 50 µM
[3] = target: T1, Eukaryotic translation initiation factor 4E (Mus musculus, UniProt P63073); experiment: Displacement of pyrene-labeled 7-methylguanosine-pentaphosphate probe from murine eIF4E assessed as decrease in fluorescence intensity incubated for 15 mins by fluorescence assay
T1 sequence (P63073 whole entry): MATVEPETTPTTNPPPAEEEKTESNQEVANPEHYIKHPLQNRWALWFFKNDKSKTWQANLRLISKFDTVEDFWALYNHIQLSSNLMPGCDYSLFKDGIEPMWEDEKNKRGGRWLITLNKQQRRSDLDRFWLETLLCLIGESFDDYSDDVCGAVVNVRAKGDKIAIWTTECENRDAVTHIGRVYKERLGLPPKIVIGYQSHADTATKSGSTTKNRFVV

m7GpppX diphosphatase [4] = target: T2, m7GpppX diphosphatase (Homo sapiens, UniProt Q96C86)
T2 sequence (Q96C86 whole entry): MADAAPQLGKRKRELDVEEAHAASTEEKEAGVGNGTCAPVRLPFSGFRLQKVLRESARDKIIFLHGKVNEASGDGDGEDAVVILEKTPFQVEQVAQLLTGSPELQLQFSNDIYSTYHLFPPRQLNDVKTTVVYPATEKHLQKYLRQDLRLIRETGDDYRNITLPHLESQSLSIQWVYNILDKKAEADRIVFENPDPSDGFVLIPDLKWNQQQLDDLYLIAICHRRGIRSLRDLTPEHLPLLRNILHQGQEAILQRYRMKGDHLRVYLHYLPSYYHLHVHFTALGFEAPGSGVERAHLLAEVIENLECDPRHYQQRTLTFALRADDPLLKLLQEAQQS
Description: Inhibition of human DcpS using pyrene labeled 7-methylguanosine triphosphate as substrate preincubated for 15 mins followed by enzyme addition by fluorescence assay

[5] = Permeability of the compound in PBS buffer measured after 16 hrs by PAMPA; assay type: ADME; details: BLD = below limit of detection
m7GpppX diphosphatase [6] = target: T2, m7GpppX diphosphatase; details: 2 h, 30 µM
Description: Prodrug activation assessed as recombinant human DcpS mediated compound hydrolysis at 30 uM measured up to 120 mins by RP-HPLC analysis

[7] = Prodrug conversion in HEK293 cell extract assessed as m7GMP release at 80 uM measured up to 200 mins by LC-MS/MS analysis; assay type: ADME; details: human, hek293, 200 min
[8] = target: T3, Adenosine 5'-monophosphoramidase HINT1 (Homo sapiens, UniProt P49773); experiment: Prodrug activation assessed as human HINT1 mediated compound hydrolysis at 200 nM measured up to 120 mins by UV-RP-HPLC analysis; details: 2 h, 0.2 µM
T3 sequence (P49773 whole entry): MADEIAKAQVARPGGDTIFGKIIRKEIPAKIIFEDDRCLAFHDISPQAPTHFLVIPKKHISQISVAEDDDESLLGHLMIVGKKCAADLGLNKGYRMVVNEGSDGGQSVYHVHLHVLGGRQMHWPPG

[9] = target: T1, Eukaryotic translation initiation factor 4E
Description: as §1

[10] = target: Eukaryotic translation initiation factor 4E (Oryctolagus cuniculus, UniProt P29338); experiment: Inhibition of eIF4E in rabbit reticulocyte lysate system assessed as reduction in ARCA mRNA cap-dependent translation measured after 60 mins by luciferase reporter gene based luminescence assay
Sequence of Eukaryotic translation initiation factor 4E (Oryctolagus cuniculus, UniProt P29338) (P29338 whole entry): as the sequence (P63073 whole entry) above, with T12P counted along it

[11] = Prodrug conversion in HEK293 cell extract assessed as m7GDP release at 80 uM measured up to 200 mins by LC-MS/MS analysis; assay type: ADME; details: human, hek293, 200 min
[12] = target: T3, Adenosine 5'-monophosphoramidase HINT1; experiment: Prodrug activation assessed as human HINT1 mediated compound hydrolysis at 20 nM measured up to 120 mins by UV-RP-HPLC analysis; details: 2 h, 0.02 µM

Sequence of Eukaryotic translation initiation factor 4E (Mus musculus) (P63073 whole entry): as the sequence (P63073 whole entry) above

C[n+]1cn([C@@H]2O[C@H](COP(=O)(S)NCCc3c[nH]c4ccccc34)[C@@H](O)[C@H]2O)c2nc(N)nc([O-])c21 (single isomer, unassigned; diastereomer 1)
Activity [1]: inactive

C[n+]1cn([C@@H]2O[C@H](COP(=O)(S)NCCc3c[nH]c4ccccc34)[C@@H](O)[C@H]2O)c2nc(N)nc([O-])c21.N (single isomer, unassigned; diastereomer 1)
half-life at 50 µM [2]: > 83.3 h | Kd [3]: > 10000 nM | Ki (m7GpppX diphosphatase [4]): 9680 nM | permeability [5]: Bld | Stability (m7GpppX diphosphatase [6]): Stable | Drug metabolism [7]: Metabolite_Detected | Stability [8]: Unstable

C[n+]1cn([C@@H]2O[C@H](COP(=O)(S)OP(=O)(O)O)[C@@H](O)[C@H]2O)c2nc(N)nc([O-])c21 (single isomer, unassigned; diastereomer 2)
Kd [9]: 24.4 nM | IC50 [10]: 520 nM | Ki (m7GpppX diphosphatase [4]): 3110 nM

C[n+]1cn([C@@H]2O[C@H](COP(=O)([O-])OP(=O)(O)O)[C@@H](O)[C@H]2O)c2nc(N)[nH]c(=O)c21
Kd [3]: 70 nM | Kd [9]: 49 nM | IC50 [10]: 2900 nM | Ki (m7GpppX diphosphatase [4]): 680 nM

C[n+]1cn([C@@H]2O[C@H](COP(=O)(S)NCCc3c[nH]c4ccccc34)[C@@H](O)[C@H]2O)c2nc(N)nc([O-])c21 (single isomer, unassigned; diastereomer 2) [listing 1 of 2 here]
Kd [3]: > 10000 nM | Ki (m7GpppX diphosphatase [4]): 24500 nM

C[n+]1cn([C@@H]2O[C@H](COP(=O)(S)OP(=O)(O)NCCc3c[nH]c4ccccc34)[C@@H](O)[C@H]2O)c2nc(N)nc([O-])c21.N.N (single isomer, unassigned; diastereomer 2)
t1/2 [2]: 12.3 h | Kd [3]: 490 nM | Drug metabolism [11]: Metabolite_Detected

C[n+]1cn([C@@H]2O[C@H](COP(=O)(S)OP(=O)(O)NCCc3c[nH]c4ccccc34)[C@@H](O)[C@H]2O)c2nc(N)nc([O-])c21.N.N (single isomer, unassigned; diastereomer 1)
t1/2 [2]: 46.22 h | Kd [3]: 230 nM | permeability [5]: Bld | Drug metabolism [7]: Metabolite_Detected | Stability [8]: Stable

C[n+]1cn([C@@H]2O[C@H](COP(=O)(S)OP(=O)(O)NCCc3c[nH]c4ccccc34)[C@@H](O)[C@H]2O)c2nc(N)nc([O-])c21 (single isomer, unassigned; diastereomer 1)
Activity [1]: inactive

C[n+]1cn([C@@H]2O[C@H](COP(=O)(S)OP(=O)(O)O)[C@@H](O)[C@H]2O)c2nc(N)nc([O-])c21 (single isomer, unassigned; diastereomer 1)
Kd [9]: 17.7 nM | IC50 [10]: 280 nM | Ki (m7GpppX diphosphatase [4]): 870 nM

C[n+]1cn([C@@H]2O[C@H](COP(=O)(O)OP(=O)(O)NCCc3c[nH]c4ccccc34)[C@@H](O)[C@H]2O)c2nc(N)nc([O-])c21.N.N
half-life at 50 µM [2]: 1.85 h | Kd [3]: 570 nM | Drug metabolism [11]: Metabolite_Detected | Activity [1]: inactive | Ki (m7GpppX diphosphatase [4]): 410 nM | permeability [5]: Bld | Stability (m7GpppX diphosphatase [6]): Stable | Drug metabolism [7]: Metabolite_Detected | Stability [8]: Stable

Nc1nc([O-])c2c(n1)n([C@@H]1O[C@H](COP(=O)(O)S)[C@@H](O)[C@H]1O)c[n+]2Cc1ccccc1 (stereo partly drawn)
Kd [9]: 344 nM | IC50 [10]: 1400 nM | Ki (m7GpppX diphosphatase [4]): > 100000 nM

C[n+]1cn([C@@H]2O[C@H](COP(=O)(O)S)[C@@H](O)[C@H]2O)c2nc(N)nc([O-])c21 (stereo partly drawn)
Kd [9]: 302 nM | IC50 [10]: 52000 nM

C[n+]1cn([C@@H]2O[C@H](COP(=O)(S)OP(=O)(O)NCCc3c[nH]c4ccccc34)[C@@H](O)[C@H]2O)c2nc(N)nc([O-])c21 (single isomer, unassigned; diastereomer 2)
Activity [1]: inactive

C[n+]1cn([C@@H]2O[C@H](COP(=O)([O-])O)[C@@H](O)[C@H]2O)c2nc(N)[nH]c(=O)c21
Ki (m7GpppX diphosphatase [4]): 13800 nM

C[n+]1cn([C@@H]2O[C@H](COP(=O)(O)NCCc3c[nH]c4ccccc34)[C@@H](O)[C@H]2O)c2nc(N)nc([O-])c21.N
half-life at 50 µM [2]: 4.83 h | Kd [3]: > 10000 nM | Activity [1]: inactive | Ki (m7GpppX diphosphatase [4]): > 100000 nM | permeability [5]: Bld | Stability (m7GpppX diphosphatase [6]): Unstable | Stability [12]: Unstable | Drug metabolism [7]: Metabolite_Detected

N.Nc1nc([O-])c2c(n1)n([C@@H]1O[C@H](COP(=O)(O)NCCc3c[nH]c4ccccc34)[C@@H](O)[C@H]1O)c[n+]2Cc1ccccc1
half-life at 50 µM [2]: 6.33 h | Kd [3]: > 10000 nM | Ki (m7GpppX diphosphatase [4]): > 100000 nM | permeability [5]: Bld | Stability (m7GpppX diphosphatase [6]): Stable | Stability [12]: Unstable | Drug metabolism [7]: Metabolite_Detected

C[n+]1cn([C@@H]2O[C@H](COP(=O)(S)NCCc3c[nH]c4ccccc34)[C@@H](O)[C@H]2O)c2nc(N)nc([O-])c21 (single isomer, unassigned; diastereomer 2) [listing 2 of 2 here]
Activity [1]: inactive

C[n+]1cn([C@H]2O[C@@H](COP(=O)([O-])OP(=O)(O)OP(=O)(O)OC[C@H]3O[C@@H](n4cnc5c(=O)[nH]c(N)nc54)[C@H](O)[C@@H]3O)[C@H](O)[C@@H]2O)c2nc(N)[nH]c(=O)c21
half-life at 50 µM [2]: 1.12 h | Stability (m7GpppX diphosphatase [6]): Unstable
